Test results: US8361802B2, “Fluorescent ozone sensor” (University of Pittsburgh—Of the Commonwealth System of …, priority 2009, dated 2013)

Legend:
[1] = Ozone detection method, fluorescence turn-on of sensor in aqueous buffer / cell culture media
Procedure: In order to develop a fluorescent method amenable to both biological and atmospheric detection, pH 7 buffer ([PO4^3−]=5 mM) is chosen to perform the conversion of sensor 4, such as homoallyl ether, to fluorescent compound 7. A solution of sensor 4 in 5:95 MeOH/pH 7 buffer at 24° C. is exposed to ozone, incubated at 37° C. for 1 hour to facilitate β-elimination, and formation of fluorescent compound 7 is observed (signal-to-background (S/B)=Sample B (28)/Sample A (0.35)=80) (FIG. 2a). For an ozone detection method in the presence of cells, the ozonolysis reaction is performed in a mixture of pH 7 buffer and RPMI-1640 cell culture media (3:1).
Ozone detection method. Solutions of compound 4 ([4]final=12.5 μM) in 5:95 MeOH/pH 7 buffer ([PO4^3−]=5 mM) solution (4.0 mL) were prepared, and the samples were exposed to ozone at 24° C. followed by 1 hour incubation at 37° C. before fluorescence measurement (except for the ambient air experiments). The concentration of ozone was 5 μM for these studies. Fluorescence spectra were recorded in a 1×1-cm disposable cuvette on a Jobin Yvon FluoroMax-3 spectrometer under the control of a Windows-based PC running FluorEssence software. The samples were excited at 497 nm and the emission intensities were collected at 523 nm. All spectra were corrected for emission intensity using the manufacturer supplied photomultiplier curves.
Ozone: Solution A (5.0 μL, [compound 4 or compound 8]final=12.5 μM) was added to a mixture of MeOH/pH 7 buffer ([PO4^3−]=5 mM) (5:95) (4.0 mL), and the samples were exposed to ozone (˜5 μM) at 24° C. followed by 1 hour incubation at 37° C. before fluorescence measurement.

[2] = Ozone detection in indoor air on adsorbent paper strips; conditions: 500 nmol on adsorbent paper, photocopy room, eight hours
Procedure: One embodiment of the present invention can be a badge that contains compound 4 that may be worn by patients so their total ozone exposure can be continuously measured through the day. A proof-of-principle experiment was conducted with compound 4 and compound 1 as a comparative. A solution of compound 4 (500 nmol) in dimethylsulfoxide (DMSO) was absorbed on a piece of adsorbent paper and allowed to dry. The paper strips were stored in an office room that had two photocopiers and two laser printers. After eight hours, the paper strips were removed and placed in a vial that contained oH 7 buffer to elute the dyes. […] The deviation in these values is presumably because of photobleaching and the lack of specificity of compound 1 towards various ROS, including singlet oxygen.
Ozone detection in indoor air. FIG. 10 are photographic illustrations of results of Ozone detection tests in indoor air using the present invention. The top photograph is a Kimwipe® before placing into photocopy room for 8 hours. The bottom photographs are a Kimwipe® in buffer for absorbance and fluorescence measurement, wherein the left photograph is an indigo carmine taken in room light), and the right photograph is compound 4 taken under long-range UV lamp. One adsorbent paper (Kimwipe®) was cut into two 11×9 cm pieces. Solution A (50 μL, 500 nmol of compound 4) was added to one portion of the Kimwipe® and allowed to dry (FIG. 10, top right). Solution B (50 μL, 500 nmol of indigo carmine) was added to the other portion of the Kimwipe® and allowed to dry (FIG. 10, top left). After overnight drying in a laboratory drawer, the paper strips were moved to a poorly ventilated photocopy room (2 photocopiers and 2 laser printers) for 8 hours. The controls remained in the laboratory drawer. After 8 hours, the samples were placed into a scintillation vial, and the dyes were eluted with pH 7 buffer (6.0 mL) (˜5 min) before fluorescence and absorbance measurement. […] FIGS. 3C-D error bars were determined from the calculated mean and standard deviation (Prism 5.0a, GraphPad Software, Inc.).

[3] = system: Human bronchial epithelial cells (BEAS-2B); test: Live-cell imaging of human bronchial epithelial cells; type: cell-based; conditions: human bronchial epithelial cells
Procedure: Human bronchial epithelial cells (BEAS-2B) (American Type Culture Collectin) were grown in LHC-9 medium (Invitrogen) on glass-bottomed Petri dishes (MatTek) precoated with 0.01 mg ml^−1 of human fibronectin (Invitrogen), 0.029 mg ml^−1 Vitrogen 100 (Cohesion) and 0.01 mg ml^−1 bovine serum albumin (Invitrogen) in LHC-9 medium. Immediately prior to imaging, cells were rinsed with Hank's balanced salt solution, which contained calcium and magnesium, and placed inside a temperature-controlled, airtight environmental chamber and maintained at 37° C. and 5% CO2. Images were obtained using a Nikon TE2000E-PFS (Perfect focus system) microscope equipped with a […] oil-immersion objective (Nikon, CFI PlanFluor, NA 1.3) and a fluorescien isothiocyanate longpass filter set (Chroma), a Q-Imaging SRV CCD camera (Q-imaging) and MetaMorph software (Molecular Devices). The motorized XYZ stage used was made by ASA (Eugege). Baseline images were collected before the addition of compound 8 and time-lapsed images obtained at 30 second intervals after the addition of compound 8 (250 nM). Once stage baseline had been achieved, multiple washes were carried out and the media replaced. The cells were then exposed to ozone (˜2.1 ppm) and monitored every 30 seconds for 15 minutes. Ozone was generated from medical grade oxygen (Valley Gas) via a model V1-0 ultraviolet ozonator (OREC) and analyzed with a Dasibi (Glendale) direct-reading instrument. Ozone concentrations were maintained by adjusting both the intensity of the ultraviolet light and the flow rate of oxygen. For each experiment, images were collected from six stages, with a minimum of five cells per position (a minimum of 30 cells per […]).
In another embodiment of the invention, human bronchial epitelial cells were incubated with compound 4 to determine ozone's role in cell biology. […] Based on studies why compound 4 and structurally related compounds are not fluorescent, it is believed that the hydroxymethyl group 4 may have been oxidized to give a more electron-withdrawing group, possible a carboxyl or aldehyde group, and so emit a strong fluorescence signal. To circumvent such an oxidation event, compound 8 was prepared specific for ozone. […] Once a steady baseline signal had been established and maintained for five minutes, ozone gas was generated within the airtight environmental chamber that housed the cell-culture dishes, and fluorescent signals were monitored using live-cell microscopy for approximately 15 minutes.
FIGS. 16A-H are photographs of live-cell imaging of human bronchial epithelial cells in the presence of ozone using compound 8. The left-hand panels (FIGS. A-E) are pseudocolour images that indicate the changes in emission intensity over time, and the right-hand panels show differential interference contrast images of the bronchial epithelial cells. FIG. 16A is before the addition of compound 8 (0 seconds). FIG. 16B illustrates the cell at 107 seconds that is a steady state intensity reached with compound 8 at 250 nM. FIG. 16C illustrates the cell at 326 seconds when ozone flow is started. FIG. 16D illustrates the cell at 536 seconds with the emission intensity increasing. FIG. 16E illustrates the cell at 675 seconds when emission maximum is reached. FIG. 16F illustrates the cell at 820 seconds when the cell starts to die. FIG. 16G illustrates the cell at 969 seconds where the cell emission continues to fall. FIG. 16H illustrates the cell at 1148 seconds when the ozone flow is stopped.

C=CCCOc1cc2oc3cc(=O)c(Cl)cc-3c(-c3ccccc3CO)c2cc1Cl [compound 4]
fluorescent intensity at 523 nm, Sample A (no ROS) ([1]; 12.5 μM sensor, 5:95 MeOH/pH 7 buffer, no ozone (background)): 0.35 a. u.×10^5
fluorescent intensity at 523 nm, Sample B (ozone) ([1]; 12.5 μM sensor, 5:95 MeOH/pH 7 buffer, ozone at 24° C. then 1 hour at 37° C.): 28 a. u.×10^5
signal-to-background (S/B) ([1]; 5:95 MeOH/pH 7 buffer, ozone at 24° C. then 1 hour at 37° C.): 80
signal-to-background (S/B) ([1]; mixture of pH 7 buffer and RPMI-1640 cell culture media (3:1)): 104
compound 7 generated on paper strip [2]: 0.95 nmol
cell permeability [3]: cell permeable
fluorescence inside the cells in the absence of external ozone ([3]; no external ozone): converted to a fluorescent compound inside the cells
